Test results: patent EP0927045B1, “TUMOR HOMING MOLECULES, […] THEREFROM, AND METHODS OF USING SAME” (The Burnham Institute, priority 1996, dated 1998)
Like-named read-outs stand apart in the source and are kept apart here. Where no end group is shown, it is not given here.

How the values were obtained:
[1] = test system: MDA-MB-435 human breast carcinoma cells; test: In vitro characterization of cytotoxicity, crystal violet staining; assay type: cell-based
Method: (§1) (SEQ ID NO: 1) conjugate, or the doxorubicin/[sequence] (SEQ ID NO: 19; control) conjugate (0.1 to 10 µg/well of doxorubicin-equivalent) for either 30 min or overnight. Following incubation, the agents were removed by extensive washing with PBS, then fresh medium added and incubation was continued. The number of surviving cells was determined at 24 hours with crystal violet staining (see Koivunen et al., supra, 1994).

[2] = test system: MDA-MB-435 breast carcinoma; test: Tumor therapy with doxorubicin/peptide conjugates in tumor bearing mice; assay type: in vivo, Balb c nu/nu mice; settings: for effect on tumor growth: relative to treatment with the vehicle, alone
Method: Female 2-month old Balb c nu/nu mice (Harlan Sprague Dawley; San Diego CA) were used for these studies and were cared for according to the Burnham Institute animal facility guidelines. […] Tumors were allowed to grow to a size of about 1 cm^3 (about 5% of the mouse's body weight) before starting the treatment experiments, except for the toxicity experiments as discussed below.
Weekly doxorubicin/peptide conjugate or control treatments (5 µg/mouse/week of doxorubicin-equivalent) were administered intravenously. In some experiments, as indicated, a dose of 30 µg/mouse was administered every 3 weeks. Treatment with doxorubicin, alone, is referred to as "dox control" and treatment with doxorubicin conjugated to the non-tumor homing control peptide, […] As an additional control, in some experiments the tumor homing peptide was mixed with doxorubicin, without linking, and the mixture was administered to tumor bearing mice. Such treatment produced results that were not statistically different from those obtained with the above described dox controls.
Mice were anesthetized with a tribromoethanol-based anesthetic mixture (AVERTIN; Papaioannou and Fox, Lab. Anim. 43:189-192 (1993)) before each treatment. Anesthetization facilitated the tail vein injections (final volume, 200 µl) and allowed precise serial three dimensional tumor size measurements. Tumor volume calculations were based on the equation for the volume of an ovaloid: V=4/3(nabc), where a, b, and c are 1/2 of the measured diameters in each of the three dimensions.

[3] = Acute toxicity in mice bearing extremely large tumors; assay type: in vivo; settings: 200 µg/mouse; tumors about 25% of body weight
Method: Acute toxicity studies also were performed.

[4] = test system: Human 435 breast carcinoma; test: In vivo targeting of phage to a tumor, phage in organs quantitated; design: species or system nude mice
Method: When the tumors attained a diameter of about 1 cm, phage expressing a specific RGD-containing peptide were administered to the tumor bearing mouse. Similar results TABLE 1
1 x 10^9 phage expressing the RGD-containing peptide, […] (SEQ ID NO: 1; see, Koivunen et al., supra, 1995) or control (insertless) phage were injected intravenously (iv) into the mice and allowed to circulate for 4 min. The mice then were snap frozen or perfused through the heart while under anesthesia, and various organs, including tumor, brain and kidney, were removed and the phage present in the organs was quantitated (see U.S. Patent No. 5,622,699; Pasqualini and Ruoslahti, supra, 1996).

human Kaposi's sarcoma = test: In vivo targeting of phage to a tumor; design: species or system mice; settings: human Kaposi's sarcoma xenograft
Method: Since the αvβ3 integrin is expressed by endothelial cells in angiogenic vasculature, experiments were performed to determine whether tumor vasculature that is undergoing angiogenesis can be targeted in vivo using methods as disclosed herein. Phage expressing the peptide, […] (SEQ ID NO: 1; see, Koivunen et al., supra, 1995), which is known to bind to the αvβ3 integrin, were injected into mice bearing tumors formed from human breast carcinoma cells, mouse melanoma cells or human Kaposi's sarcoma cells (see Example IV). The […] […] For example, in mice bearing tumors formed by implantation of human breast carcinoma cells, a twenty-to eighty-fold greater number of the […] (SEQ ID NO: 1) phage, as compared to unselected control phage, accumulated in the tumor.

breast tumor = test: Viability of tumor cells plated from tumors of treated mice; assay type: in vivo; settings: 30 pg equivalent iv, tumors removed five days after treatment, cell numbers 24 hours and 7 days after plating
Source text: In addition, the viability of tumor cells obtained from tumors of mice treated with a tumor homing peptide/doxorubicin conjugate was compared to that of tumors from mice treated with free doxorubicin. In these experiments, breast tumor bearing mice were size matched with regard to the tumors, then treated intravenously with 30 pg equivalent of doxorubicin/[…] (SEQ ID NO: 1) or of free doxorubicin. Five days after treatment, the mice were euthanized and the tumors were removed. The tumor pairs were weighed and ground and the cell suspensions were plated (2 g tumor tissue per 150 mm plate).
Cell numbers were determined at 24 hours and 7 days after plating. Viability of tumor cells from the tumors of mice receiving the doxorubicin/[…] (SEQ ID NO: 1) conjugate was about 3 fold less than cells from tumors of mice treated with the free doxorubicin.

[5] = test system: MDA-MB-435 human breast carcinoma cells; assay type: cell-based; settings: for cell killing: agents not removed after 30 min, after 24 hr
Method: as §1

[6] = Acute toxicity in mice bearing extremely large tumors; assay type: in vivo; settings: 200 µg/mouse; tumors about 25% of body weight; remark: listed apart in the source
Method: Acute toxicity studies also were performed. […] (SEQ ID NO: 1) conjugate. All of the mice treated with the doxorubicin/[…]

[7] = exposure 30 min, then agents removed, 0.1 to 10 µg/well doxorubicin-equivalent, surviving cells at 24 hours
[8] = 5 µg/mouse/week doxorubicin-equivalent
[9] = 5 µg/mouse/week doxorubicin-equivalent iv
[10] = 5 µg/mouse/week doxorubicin-equivalent iv, at necropsy, t test p<0.0001

COc1cccc2c1C(=O)c1c(O)c3c(c(O)c1C2=O)C[C@@](O)(C(=O)CO)C[C@@H]3O[C@H]1C[C@H](N)[C@H](O)[C@H](C)O1 [doxorubicin]
cell killing ([1]; agents not removed after 30 min, after 24 hr): killed | cell death [1, 7]: cell death was present only in the cultures treated with the doxorubicin/CDCRGDCFC | gross examination: skin ulceration and tumor necrosis ([2]; 5 µg/mouse/week doxorubicin equivalent): no such signs were observed | effect on tumor growth [2]: essentially no effect on tumor growth | time to death after treatment [3]: ≤ 48 h

CLSGSLSC
selective homing of phage to the tumor [4]: also homed | selective homing of phage to the tumor (human Kaposi's sarcoma): also homed

doxorubicin/CDCRGDCFC: CDCRGDCFC (SEQ ID NO: 1) coupled to doxorubicin using EDC and NHS (cysteine pairing not given here; also: doxorubicin coupled via EDC/NHS)
gross examination: skin ulceration and tumor necrosis [2, 8]: marked skin ulceration and tumor necrosis | survival compared with dox control and conjugate control [2, 9]: survived beyond the time when the dox control and conjugate control mice had died | tumor size compared with controls [2, 9]: significantly smaller tumors | pulmonary metastasis compared with dox control [2, 10]: a lower incidence of pulmonary metastasis and fewer metastatic lesions | spread to regional lymph nodes compared with dox control [2, 10]: less spread to regional lymph nodes | time alive after the dox control and conjugate control mice had died ([2]; dose escalation: 30 µg/mouse every three weeks for three cycles): more than 6 months | histopathological analysis of tumor vasculature compared with dox control ([2]; mouse, in vivo): pronounced destruction of the vasculature | viability of tumor cells relative to cells from tumors of mice treated with free doxorubicin (breast tumor): about 3 fold less | cell killing [5]: killed | cell death [5, 7]: cell death was present | survival after treatment [6]: survived for longer than one week

doxorubicin/GACVFSIAHECGA: doxorubicin conjugated to the non-tumor homing control peptide, GACVFSIAHECGA (SEQ ID NO: 19) (cysteine pairing not given here; also: doxorubicin conjugated) [reference compound]
gross examination: skin ulceration and tumor necrosis [2, 8]: no such signs were observed | treatment results compared with dox control [2, 9]: not significantly different | effect on tumor growth [2]: essentially no effect on tumor growth | cell death [5]: cell death was present only in the cultures treated with the doxorubicin/[…] | cell killing [5]: killed
